Experiments:
[1] = system: Influenza strain A549 A/WSN/33 (H1N1); assay: Influenza Antiviral Assay; type: cell-based, Influenza A virus; conditions: Influenza A virus, A549, 20 h, neuraminidase fluorescence readout, read-out: % Inhibition
EN PA = EN PA (Influenza A virus, UniProt P15659); assay: EN PA FRET Inhibition Assay; type: biochemical; conditions: read-out: Potency

Row | SMILES | EC50 [1] [nM] | IC50 (EN PA) [nM]
1 | CC(C)(C)OC(=O)n1cc(CCn2cc(O)c(=O)c(C(=O)O)n2)c2ccccc21 [Compound 404] | > 100000 | < 100
2 | CCOC(=O)c1nn(CC2(c3cccc(C(F)(F)F)c3)CCCC2)cc(O)c1=O [Compound 405] | < 20000 | ≥ 1000
3 | O=C(O)c1nn(CC2(c3cccc(C(F)(F)F)c3)CCCC2)cc(O)c1=O [Compound 406] | < 20000 | < 100
4 | O=C(O)c1nn(CCc2c[nH]c3ccccc23)cc(O)c1=O [Compound 407] | > 100000 | 100 to 1000
5 | CCOC(=O)c1nn(CCc2ccccc2C(F)(F)F)cc(O)c1=O [Compound 408] | 20000 to 100000 | ≥ 1000
6 | O=C(O)c1nn(Cc2ccccc2)cc(O)c1=O [Compound 409] | > 100000 | 100 to 1000
7 | O=C(O)c1nn(CC2(c3ccccc3)CCCC2)cc(O)c1=O [Compound 410] | < 20000 | < 100
8 | CCOC(=O)c1nn(CC2(c3ccccc3)CCCC2)cc(O)c1=O [Compound 411] | < 20000 | 100 to 1000
9 | O=C(O)c1nn(CCc2cccc(C(F)(F)F)c2)cc(O)c1=O [Compound 412] | > 100000 | < 100
10 | Cc1ccc(C(C)(C)Cn2cc(O)c(=O)c(C(=O)O)n2)cc1 [Compound 416] | 20000 to 100000 | < 100
11 | O=C(O)c1nn(CCC2CCCCC2)cc(O)c1=O [Compound 421] | > 100000 | 100 to 1000
12 | O=C(O)c1nn(CC2(n3ccc4cccnc43)CCCC2)cc(O)c1=O [Compound 422] | < 20000 | < 100
13 | O=C(O)c1nn(CCc2cccc3ccccc23)cc(O)c1=O [Compound 423] | > 100000 | 100 to 1000
14 | O=C(O)c1nn(CC2(c3cccc(C(F)(F)F)c3)CC2)cc(O)c1=O [Compound 424] | 20000 to 100000 | 100 to 1000
15 | CCC(NC(=O)c1nn(CC2(c3cccc(C(F)(F)F)c3)CCCC2)cc(O)c1=O)C(F)(F)F (stereo not drawn) [Compound 500, 5-hydroxy-4-oxo-N-(1,1,1-trifluorobutan-2-yl)-1-((1-(3-(trifluoromethyl)phenyl)cyclopentyl)methyl)-1,4-dihydropyridazine-3-carboxamide] | < 20000 | 100 to 1000
16 | CNC(=O)c1nn(-c2ccccc2-c2ccc(CC(C)C)cc2)cc(O)c1=O [Compound 501] | < 20000 | ≥ 1000
17 | O=C(c1nn(CC2(c3cccc(C(F)(F)F)c3)CCCC2)cc(O)c1=O)N1CCC(F)(F)C1 [Compound 502] | < 20000 | ≥ 1000
18 | O=C(NC1(C(F)(F)F)CCCC1)c1nn(CC2(c3cccc(C(F)(F)F)c3)CCCC2)cc(O)c1=O [Compound 503] | < 20000 | 100 to 1000
19 | CN(C)C(=O)c1nn(CC2(c3cccc(C(F)(F)F)c3)CCCC2)cc(O)c1=O [Compound 504] | 20000 to 100000 | ≥ 1000

Row | SMILES | EC50 [1] [nM] | IC50 (EN PA) [nM]
20 | O=C(NCC(F)(F)F)c1nn(CC2(c3cccc(C(F)(F)F)c3)CCCC2)cc(O)c1=O [Compound 505] | < 20000 | 100 to 1000
21 | CNC(=O)c1nn(CC2(c3cc(C(F)(F)F)cc(C(F)(F)F)c3)CCCC2)cc(O)c1=O [Compound 506] | < 20000 | 100 to 1000
22 | O=C(NC1CC1)c1nn(CC2(c3cccc(C(F)(F)F)c3)CCCC2)cc(O)c1=O [Compound 507] | < 20000 | 100 to 1000
23 | O=C(NCc1ccccc1)c1nn(CC2(c3cccc(C(F)(F)F)c3)CCCC2)cc(O)c1=O [Compound 509] | < 20000 | 100 to 1000
24 | O=C(NCC1CC1)c1nn(CC2(c3cccc(C(F)(F)F)c3)CCCC2)cc(O)c1=O [Compound 510] | < 20000 | 100 to 1000
25 | CNC(=O)c1nn(CC2(c3cccc(C(F)(F)F)c3)CCCC2)cc(O)c1=O [Compound 511] | < 20000 | 100 to 1000
26 | CS(=O)(=O)NC(=O)c1nn(CC2(c3cccc(C(F)(F)F)c3)CCCC2)cc(O)c1=O [Compound 512] | < 20000 | 100 to 1000
27 | O=C(NCc1ccc(Cl)c(Cl)c1)c1nn(CC2(c3cccc(C(F)(F)F)c3)CCCC2)cc(O)c1=O [Compound 513] | < 20000 | 100 to 1000
28 | O=C(NC1CCCC1)c1nn(CC2(c3cccc(C(F)(F)F)c3)CCCC2)cc(O)c1=O [Compound 514] | < 20000 | 100 to 1000
29 | O=C(NC1CCC1)c1nn(CC2(c3cccc(C(F)(F)F)c3)CCCC2)cc(O)c1=O [Compound 515] | > 100000 | 100 to 1000
30 | O=C(NC1CCCCC1)c1nn(CC2(c3cccc(C(F)(F)F)c3)CCCC2)cc(O)c1=O [Compound 516] | < 20000 | 100 to 1000
31 | O=C(Nc1ccccc1)c1nn(CC2(c3cccc(C(F)(F)F)c3)CCCC2)cc(O)c1=O [Compound 517] | < 20000 | 100 to 1000
32 | CNC(=O)c1nn(-c2ccccc2-c2ccccc2-c2ccccc2)cc(O)c1=O [Compound 518] | < 20000 | 100 to 1000
33 | CNC(=O)c1nn(-c2ccccc2-c2ccccc2C(C)C)cc(O)c1=O [Compound 519] | 20000 to 100000 | 100 to 1000
34 | O=C(NCc1ccc(Cl)cc1)c1nn(CC2(c3cccc(C(F)(F)F)c3)CCCC2)cc(O)c1=O [Compound 523] | < 20000 | 100 to 1000
35 | Cc1ccc(CNC(=O)c2nn(CC3(c4cccc(C(F)(F)F)c4)CCCC3)cc(O)c2=O)cc1 [Compound 524] | < 20000 | 100 to 1000
36 | COc1ccc(CNC(=O)c2nn(CC3(c4cccc(C(F)(F)F)c4)CCCC3)cc(O)c2=O)cc1 [Compound 525] | < 20000 | 100 to 1000
37 | NC(=O)c1nn(CC2(c3cccc(C(F)(F)F)c3)CCCC2)cc(O)c1=O [Compound 602] | < 20000 | 100 to 1000
38 | CNC(=O)c1nn(-c2ccccc2S(=O)(=O)c2ccccc2)cc(O)c1=O [Compound 603] | > 100000 | ≥ 1000

Row | SMILES | EC50 [1] [nM] | IC50 (EN PA) [nM]
39 | CNC(=O)c1nn(CCc2ccccc2OC)cc(O)c1=O [Compound 604] | > 100000 | ≥ 1000
40 | O=C(NCc1ccccc1)c1nn(-c2ccccc2S(=O)(=O)c2ccccc2)cc(O)c1=O [Compound 605] | 20000 to 100000 | 100 to 1000
41 | CNC(=O)c1nn(CCC2CCCCC2)cc(O)c1=O [Compound 606] | 20000 to 100000 | ≥ 1000
42 | CNC(=O)c1nn(CC(C)(C)c2ccc(C)cc2)cc(O)c1=O [Compound 607] | < 20000 | 100 to 1000
43 | CNC(=O)c1nn(CC2(n3ccc4cccnc43)CCCC2)cc(O)c1=O [Compound 609] | < 20000 | < 100
44 | CNC(=O)c1nn(-c2ccccc2-c2ccccc2OC2CCCC2)cc(O)c1=O [Compound 610] | 20000 to 100000 | 100 to 1000
45 | CNC(=O)c1nn(-c2ccccc2-c2cccc(OC)c2)cc(O)c1=O [Compound 611] | > 100000 | ≥ 1000
46 | CNC(=O)c1nn(-c2ccccc2-c2cc(OC)ccc2Cl)cc(O)c1=O [Compound 612] | 20000 to 100000 | ≥ 1000
47 | CNC(=O)c1nn(-c2ccccc2-c2ccc3[nH]ccc3c2)cc(O)c1=O [Compound 613] | > 100000 | ≥ 1000
48 | CNC(=O)c1nn(CCc2cccc3ccccc23)cc(O)c1=O [Compound 614] | 20000 to 100000 | 100 to 1000
49 | CNC(=O)c1nn(CC2(c3cccc(C(F)(F)F)c3)CC2)cc(O)c1=O [Compound 621] | < 20000 | 100 to 1000
50 | CNC(=O)c1nn(CC2(n3cc(C)c4cccnc43)CCCC2)cc(O)c1=O [Compound 622] | < 20000 | 100 to 1000
51 | COc1cccc(CNC(=O)c2nn(CC3(c4cccc(C(F)(F)F)c4)CCCC3)cc(O)c2=O)c1 [Compound 624] | < 20000 | 100 to 1000
52 | O=C(NCc1ccc2c(c1)OCO2)c1nn(CC2(c3cccc(C(F)(F)F)c3)CCCC2)cc(O)c1=O [Compound 625] | < 20000 | 100 to 1000
53 | NC(=O)c1nn(CC2(c3cccc(C(F)(F)F)c3)CC2)cc(O)c1=O [Compound 626] | 20000 to 100000 | 100 to 1000
54 | O=C(Nc1ccccc1)c1nn(CC2(c3ccccc3)CCCC2)cc(O)c1=O [Compound 639] | 20000 to 100000 | 100 to 1000
55 | CNC(=O)c1nn(-c2ccccc2S(=O)(=O)c2cccc(Cl)c2)cc(O)c1=O [Compound 644] | > 100000 | 100 to 1000
56 | CNC(=O)c1nn(CC(C)(C)c2cccc(C(F)(F)F)c2)cc(O)c1=O [Compound 645] | < 20000 | < 100
57 | Cn1cc(CNC(=O)c2nn(CC3(c4cccc(C(F)(F)F)c4)CCCC3)cc(O)c2=O)cn1 [Compound 646] | < 20000 | < 100

Source: US10364226B2, “Pyridazinone compounds and uses thereof” (priority 2013, dated 2019)
